Measured values from ChEMBL document CHEMBL1201862, “PubChem BioAssay data set” (2004).
The source made the active and inactive calls.

Columns and labels:
[1] = target: Hepatocyte growth factor receptor (Homo sapiens, UniProt P08581); type: functional;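 further: kinase panel profiling across the kinome, with MET as the panel member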
[2] = target: BDNF/NT-3 growth factors receptor (Homo sapiens, UniProt Q16620); type: functional;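 further: NTRK2 measured as one member of a broad kinome-wide kinase profiling panel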
BDNF/NT-3 growth factors receptor, sequence (Q16620 whole entry): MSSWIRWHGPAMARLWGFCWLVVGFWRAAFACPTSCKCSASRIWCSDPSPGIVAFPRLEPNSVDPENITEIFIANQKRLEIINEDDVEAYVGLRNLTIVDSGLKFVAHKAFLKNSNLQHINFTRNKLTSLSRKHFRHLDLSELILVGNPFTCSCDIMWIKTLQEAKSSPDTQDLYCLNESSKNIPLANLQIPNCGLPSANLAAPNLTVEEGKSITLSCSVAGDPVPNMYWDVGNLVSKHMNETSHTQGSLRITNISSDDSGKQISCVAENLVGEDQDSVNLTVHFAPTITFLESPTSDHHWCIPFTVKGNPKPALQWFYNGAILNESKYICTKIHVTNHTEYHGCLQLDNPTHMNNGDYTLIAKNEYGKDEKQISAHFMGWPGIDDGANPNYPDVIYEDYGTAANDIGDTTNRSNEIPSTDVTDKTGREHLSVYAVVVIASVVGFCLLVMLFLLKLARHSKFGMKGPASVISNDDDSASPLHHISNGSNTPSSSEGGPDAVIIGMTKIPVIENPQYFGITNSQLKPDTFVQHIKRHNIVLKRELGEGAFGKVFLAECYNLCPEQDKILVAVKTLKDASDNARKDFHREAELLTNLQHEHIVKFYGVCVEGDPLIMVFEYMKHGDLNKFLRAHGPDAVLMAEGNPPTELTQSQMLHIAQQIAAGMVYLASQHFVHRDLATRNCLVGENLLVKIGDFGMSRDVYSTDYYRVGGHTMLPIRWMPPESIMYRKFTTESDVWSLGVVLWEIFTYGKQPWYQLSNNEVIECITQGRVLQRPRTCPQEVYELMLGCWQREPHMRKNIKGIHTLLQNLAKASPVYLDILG

[3] = target: Rho-associated protein kinase 1 (Homo sapiens, UniProt Q13464); type: functional;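 further: measured within a broad kinome-wide panel profiling many kinases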
Rho-associated protein kinase 1, sequence (Q13464 whole entry): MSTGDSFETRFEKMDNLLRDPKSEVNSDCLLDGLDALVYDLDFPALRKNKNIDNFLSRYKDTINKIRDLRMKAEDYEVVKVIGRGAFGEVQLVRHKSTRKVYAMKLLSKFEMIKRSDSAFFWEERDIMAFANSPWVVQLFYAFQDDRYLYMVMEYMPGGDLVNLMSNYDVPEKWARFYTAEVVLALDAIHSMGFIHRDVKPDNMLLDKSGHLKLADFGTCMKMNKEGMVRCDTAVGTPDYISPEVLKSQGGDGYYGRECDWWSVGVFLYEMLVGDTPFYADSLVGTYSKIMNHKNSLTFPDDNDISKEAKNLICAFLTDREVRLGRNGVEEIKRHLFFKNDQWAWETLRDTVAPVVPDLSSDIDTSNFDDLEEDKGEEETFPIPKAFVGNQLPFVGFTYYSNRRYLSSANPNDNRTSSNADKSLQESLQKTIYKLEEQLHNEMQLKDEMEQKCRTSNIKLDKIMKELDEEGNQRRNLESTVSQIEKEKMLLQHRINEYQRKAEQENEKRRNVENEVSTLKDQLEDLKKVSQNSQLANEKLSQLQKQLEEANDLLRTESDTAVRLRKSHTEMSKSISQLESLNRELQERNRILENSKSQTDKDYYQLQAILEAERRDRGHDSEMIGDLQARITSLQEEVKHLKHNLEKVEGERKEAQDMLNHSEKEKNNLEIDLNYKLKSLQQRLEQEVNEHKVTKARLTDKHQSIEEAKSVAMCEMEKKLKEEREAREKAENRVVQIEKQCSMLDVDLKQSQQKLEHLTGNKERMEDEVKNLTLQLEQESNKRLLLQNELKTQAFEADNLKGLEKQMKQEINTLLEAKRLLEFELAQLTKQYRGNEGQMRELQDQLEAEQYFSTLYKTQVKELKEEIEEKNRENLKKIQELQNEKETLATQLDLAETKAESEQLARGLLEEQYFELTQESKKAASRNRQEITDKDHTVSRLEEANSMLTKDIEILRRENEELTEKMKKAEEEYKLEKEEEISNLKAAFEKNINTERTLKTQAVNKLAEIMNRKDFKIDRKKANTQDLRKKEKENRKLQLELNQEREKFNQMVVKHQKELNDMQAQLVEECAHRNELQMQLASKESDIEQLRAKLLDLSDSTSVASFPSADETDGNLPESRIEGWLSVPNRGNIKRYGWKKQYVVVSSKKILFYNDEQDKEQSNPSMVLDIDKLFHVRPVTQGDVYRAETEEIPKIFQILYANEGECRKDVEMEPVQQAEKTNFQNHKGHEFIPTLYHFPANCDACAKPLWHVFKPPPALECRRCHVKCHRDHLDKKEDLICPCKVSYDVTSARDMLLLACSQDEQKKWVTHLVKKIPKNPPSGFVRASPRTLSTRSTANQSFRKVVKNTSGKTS

[4] = target: 5'-AMP-activated protein kinase catalytic subunit alpha-1 (Homo sapiens, UniProt Q13131); type: functional
[5] = target: Fibroblast growth factor receptor 1 (Homo sapiens, UniProt P11362); type: functional
[6] = target: Mitogen-activated protein kinase kinase kinase kinase 2 (Homo sapiens, UniProt Q12851); type: functional;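 further: measured as one member of a kinome-wide kinase panel, with MAP4K2 as the panel entry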
[7] = target: Serine/threonine-protein kinase PAK 4 (Homo sapiens, UniProt O96013); type: functional;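 further: value obtained within a kinome profiling panel in which PAK4 was one of the panel members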
[8] = target: Serine/threonine-protein kinase 3 (Homo sapiens, UniProt Q13188); type: functional;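 further: measured as one member of a kinome-wide kinase panel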
Serine/threonine-protein kinase 3, sequence (Q13188 whole entry): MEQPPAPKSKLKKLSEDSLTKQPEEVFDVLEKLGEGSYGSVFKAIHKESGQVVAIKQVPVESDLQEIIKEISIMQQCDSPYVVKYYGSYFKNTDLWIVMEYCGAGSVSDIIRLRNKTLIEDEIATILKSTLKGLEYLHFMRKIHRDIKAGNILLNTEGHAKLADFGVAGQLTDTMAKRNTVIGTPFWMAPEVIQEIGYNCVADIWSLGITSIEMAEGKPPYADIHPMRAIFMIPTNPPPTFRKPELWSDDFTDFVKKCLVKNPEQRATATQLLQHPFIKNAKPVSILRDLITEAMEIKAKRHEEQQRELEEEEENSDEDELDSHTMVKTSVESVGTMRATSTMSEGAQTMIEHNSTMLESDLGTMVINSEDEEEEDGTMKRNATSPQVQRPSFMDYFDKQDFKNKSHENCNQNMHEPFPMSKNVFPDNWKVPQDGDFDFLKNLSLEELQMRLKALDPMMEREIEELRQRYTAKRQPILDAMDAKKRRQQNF

[9] = target: Receptor tyrosine-protein kinase erbB-4 (Homo sapiens, UniProt Q15303); type: functional;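 further: ERBB4 member of a kinome-wide kinase profiling panel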
[10] = target: Ribosomal protein S6 kinase beta-1 (Homo sapiens, UniProt P23443); type: functional;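 further: measured as one member of a kinome-wide profiling panel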
Ribosomal protein S6 kinase beta-1, sequence (P23443 whole entry): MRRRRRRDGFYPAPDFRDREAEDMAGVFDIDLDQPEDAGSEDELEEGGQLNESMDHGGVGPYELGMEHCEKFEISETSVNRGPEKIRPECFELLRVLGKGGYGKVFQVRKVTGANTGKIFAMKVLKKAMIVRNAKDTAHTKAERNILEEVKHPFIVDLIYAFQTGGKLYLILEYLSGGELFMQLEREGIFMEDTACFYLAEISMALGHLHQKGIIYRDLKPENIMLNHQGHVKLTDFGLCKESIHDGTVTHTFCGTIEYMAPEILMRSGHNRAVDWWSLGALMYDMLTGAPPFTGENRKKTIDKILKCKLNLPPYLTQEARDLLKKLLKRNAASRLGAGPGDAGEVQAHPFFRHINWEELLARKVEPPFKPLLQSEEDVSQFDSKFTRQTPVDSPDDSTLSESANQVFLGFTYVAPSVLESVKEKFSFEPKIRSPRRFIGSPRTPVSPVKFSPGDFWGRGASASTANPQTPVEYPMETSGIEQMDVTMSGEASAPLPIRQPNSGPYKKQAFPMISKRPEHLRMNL

[11] = target: Protein kinase C iota type (Homo sapiens, UniProt P41743); type: functional;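 further: measured within a kinome-wide kinase panel, PRKCI as panel member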
[12] = target: Cyclin-dependent kinase 2 (Homo sapiens, UniProt P24941); type: functional;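 further: CDK2 measured as one member of a broad kinome profiling panel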
[13] = target: 3-phosphoinositide-dependent protein kinase 1 (Homo sapiens, UniProt O15530); type: functional;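 further: value comes from the Navigating the Kinome panel, PDPK1 member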
[14] = target: Cyclin-dependent kinase 5 (Homo sapiens, UniProt Q00535); type: functional;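 further: CDK5 measured as one member of a kinase profiling panel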
[15] = target: Vascular endothelial growth factor receptor 3 (Homo sapiens, UniProt P35916); type: functional;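 further: value from a kinome-wide profiling panel, with FLT4 as the panel member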
Vascular endothelial growth factor receptor 3, sequence (P35916 whole entry, canonical isoform): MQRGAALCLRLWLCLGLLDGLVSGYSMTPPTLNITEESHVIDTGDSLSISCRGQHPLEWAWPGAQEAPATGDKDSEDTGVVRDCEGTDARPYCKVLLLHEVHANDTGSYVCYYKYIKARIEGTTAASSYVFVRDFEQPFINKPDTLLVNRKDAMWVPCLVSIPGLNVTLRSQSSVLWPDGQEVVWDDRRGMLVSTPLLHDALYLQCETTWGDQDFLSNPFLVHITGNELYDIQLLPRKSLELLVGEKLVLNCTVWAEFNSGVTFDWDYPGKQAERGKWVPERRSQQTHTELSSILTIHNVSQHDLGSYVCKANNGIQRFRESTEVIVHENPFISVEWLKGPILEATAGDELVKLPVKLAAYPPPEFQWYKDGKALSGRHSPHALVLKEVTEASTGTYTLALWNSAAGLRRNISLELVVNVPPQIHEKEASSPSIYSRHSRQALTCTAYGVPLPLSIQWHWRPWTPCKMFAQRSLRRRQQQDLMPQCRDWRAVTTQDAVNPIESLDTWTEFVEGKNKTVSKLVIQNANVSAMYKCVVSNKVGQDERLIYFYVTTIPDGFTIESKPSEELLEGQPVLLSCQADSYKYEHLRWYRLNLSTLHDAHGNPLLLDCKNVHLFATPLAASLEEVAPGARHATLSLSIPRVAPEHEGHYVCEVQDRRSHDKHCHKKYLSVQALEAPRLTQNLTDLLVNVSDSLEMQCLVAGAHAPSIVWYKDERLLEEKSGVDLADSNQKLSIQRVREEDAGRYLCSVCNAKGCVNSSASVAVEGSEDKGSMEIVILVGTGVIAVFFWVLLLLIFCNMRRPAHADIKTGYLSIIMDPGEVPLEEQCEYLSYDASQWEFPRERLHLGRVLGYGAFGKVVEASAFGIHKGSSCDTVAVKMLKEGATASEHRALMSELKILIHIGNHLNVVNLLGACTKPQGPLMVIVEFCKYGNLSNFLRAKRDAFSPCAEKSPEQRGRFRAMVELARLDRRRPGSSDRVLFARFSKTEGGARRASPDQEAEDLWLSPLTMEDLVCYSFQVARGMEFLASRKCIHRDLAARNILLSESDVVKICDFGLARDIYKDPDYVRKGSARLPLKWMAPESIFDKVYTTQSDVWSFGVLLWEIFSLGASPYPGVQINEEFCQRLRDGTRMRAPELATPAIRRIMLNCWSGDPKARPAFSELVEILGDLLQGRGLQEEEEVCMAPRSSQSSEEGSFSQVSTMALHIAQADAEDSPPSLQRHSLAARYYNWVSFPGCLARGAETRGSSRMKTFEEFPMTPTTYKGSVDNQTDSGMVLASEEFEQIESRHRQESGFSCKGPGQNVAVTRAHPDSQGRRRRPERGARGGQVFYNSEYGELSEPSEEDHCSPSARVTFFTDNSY

[16] = target: Casein kinase I isoform delta (Homo sapiens, UniProt P48730); type: functional;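 further: measured as one member (CSNK1D) of a kinome panel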
[17] = target: Tyrosine-protein kinase JAK2 (Homo sapiens, UniProt O60674); type: functional;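 further: JAK2 tested as one member of a kinase panel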
[18] = target: Receptor-type tyrosine-protein kinase FLT3 (Homo sapiens, UniProt P36888); type: functional;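 further: FLT3 was tested as one member of a kinome-wide kinase panel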
[19] = target: Tyrosine-protein kinase Fyn (Homo sapiens, UniProt P06241); type: functional
Tyrosine-protein kinase Fyn, sequence (P06241 whole entry): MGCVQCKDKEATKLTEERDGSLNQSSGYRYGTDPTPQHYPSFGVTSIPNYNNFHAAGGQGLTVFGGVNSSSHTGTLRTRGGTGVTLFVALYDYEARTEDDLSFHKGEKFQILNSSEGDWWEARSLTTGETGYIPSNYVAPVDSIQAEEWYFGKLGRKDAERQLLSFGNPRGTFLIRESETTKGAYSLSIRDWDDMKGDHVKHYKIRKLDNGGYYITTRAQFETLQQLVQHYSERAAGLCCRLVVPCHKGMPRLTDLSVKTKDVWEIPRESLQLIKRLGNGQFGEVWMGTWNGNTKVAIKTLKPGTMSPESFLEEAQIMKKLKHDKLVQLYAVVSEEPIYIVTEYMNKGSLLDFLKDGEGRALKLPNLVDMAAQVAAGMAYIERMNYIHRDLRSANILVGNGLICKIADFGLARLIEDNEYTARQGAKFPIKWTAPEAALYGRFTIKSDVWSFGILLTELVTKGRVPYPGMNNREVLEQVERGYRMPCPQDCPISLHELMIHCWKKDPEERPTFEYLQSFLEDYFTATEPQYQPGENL

[20] = target: High affinity nerve growth factor receptor (Homo sapiens, UniProt P04629); type: functional;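 further: NTRK1 tested as one member of a kinome-wide profiling panel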
[21] = target: Mast/stem cell growth factor receptor Kit (Homo sapiens, UniProt P10721); type: functional;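 further: KIT entry within a kinase panel assay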
[22] = target: T1, Tyrosine-protein kinase JAK3 (Homo sapiens, UniProt P52333); type: functional
T1 sequence (P52333 whole entry): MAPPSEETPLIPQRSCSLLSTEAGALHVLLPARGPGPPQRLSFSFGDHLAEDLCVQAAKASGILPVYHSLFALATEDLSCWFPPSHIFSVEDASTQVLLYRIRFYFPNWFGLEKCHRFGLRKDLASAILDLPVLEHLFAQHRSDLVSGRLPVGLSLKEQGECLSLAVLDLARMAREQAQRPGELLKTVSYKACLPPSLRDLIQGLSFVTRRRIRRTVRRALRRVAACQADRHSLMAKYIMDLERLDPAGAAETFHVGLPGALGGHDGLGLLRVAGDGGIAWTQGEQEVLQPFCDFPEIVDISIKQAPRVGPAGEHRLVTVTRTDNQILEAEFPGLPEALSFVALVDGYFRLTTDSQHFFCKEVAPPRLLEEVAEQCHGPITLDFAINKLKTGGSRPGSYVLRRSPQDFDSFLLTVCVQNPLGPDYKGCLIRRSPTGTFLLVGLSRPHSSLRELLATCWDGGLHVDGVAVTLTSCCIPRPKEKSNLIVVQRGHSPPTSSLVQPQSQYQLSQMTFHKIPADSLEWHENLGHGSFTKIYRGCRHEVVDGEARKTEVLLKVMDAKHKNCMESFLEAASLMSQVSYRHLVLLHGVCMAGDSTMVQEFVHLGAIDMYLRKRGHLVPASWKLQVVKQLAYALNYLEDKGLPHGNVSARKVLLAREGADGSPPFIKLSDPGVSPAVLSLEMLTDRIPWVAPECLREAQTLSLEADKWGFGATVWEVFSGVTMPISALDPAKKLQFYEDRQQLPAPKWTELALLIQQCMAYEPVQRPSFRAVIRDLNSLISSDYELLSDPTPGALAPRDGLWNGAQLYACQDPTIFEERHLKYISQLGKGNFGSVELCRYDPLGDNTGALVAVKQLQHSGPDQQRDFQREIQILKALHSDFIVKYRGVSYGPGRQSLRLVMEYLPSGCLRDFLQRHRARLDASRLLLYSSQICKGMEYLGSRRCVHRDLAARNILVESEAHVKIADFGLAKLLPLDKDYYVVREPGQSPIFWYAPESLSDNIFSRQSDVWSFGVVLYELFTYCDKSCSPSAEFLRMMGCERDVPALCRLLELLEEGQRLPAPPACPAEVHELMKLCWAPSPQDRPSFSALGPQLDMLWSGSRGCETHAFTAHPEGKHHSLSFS

[23] = target: T2, Aurora kinase A (Homo sapiens, UniProt O14965); type: functional;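 further: value from the Navigating the Kinome kinase panel profiling, panel entry STK6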
T2 sequence (O14965 whole entry): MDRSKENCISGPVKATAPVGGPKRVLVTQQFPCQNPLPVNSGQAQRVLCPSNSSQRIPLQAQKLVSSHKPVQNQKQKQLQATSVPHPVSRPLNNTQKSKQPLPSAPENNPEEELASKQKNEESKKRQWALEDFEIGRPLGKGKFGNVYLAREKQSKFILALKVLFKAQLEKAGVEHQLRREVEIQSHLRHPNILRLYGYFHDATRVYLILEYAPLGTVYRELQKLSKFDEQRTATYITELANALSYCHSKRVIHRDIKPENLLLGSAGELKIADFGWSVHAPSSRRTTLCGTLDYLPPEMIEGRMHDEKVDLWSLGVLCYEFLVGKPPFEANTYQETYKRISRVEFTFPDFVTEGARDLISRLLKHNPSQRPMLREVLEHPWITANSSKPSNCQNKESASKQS

[24] = target: Cystic fibrosis transmembrane conductance regulator/Golgi-associated PDZ and coiled-coil motif-containing protein (Homo sapiens, UniProt P13569+Q9HD26); assay: CAL PDZ peptide-binding inhibitors, dose response, biochemical, fluorescence polarization, Cerulean-tagged CAL PDZ, cherry-picks (AID 504773)
[25] = target: RAC-alpha serine/threonine-protein kinase (Homo sapiens, UniProt P31749); type: functional;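 further: AKT1 affinity measured as one member of a kinome-wide kinase profiling panel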

Ki [1]	Ki [2]	Ki [3]	Ki [4]	Ki [5]	Ki [7]	Ki [8]	Ki [9]	Ki [10]	Ki [12]	Ki [13]	Ki [14]	Ki [15]	Ki [16]	Ki [17]	Ki [18]	Ki [19]	Ki [20]	Ki [21]	Ki [22]	Structure (SMILES)	other results
> 3.16 µM (inactive)	> 5.01 µM (inactive)	0.00794 µM (active)	0.0126 µM (active)	> 5.01 µM (inactive)	0.398 µM (active)	0.0794 µM (active)	> 3.98 µM (inactive)	0.0126 µM (active)	0.01 µM (active)	0.2 µM (active)	0.0631 µM (active)	3.16 µM (active)	0.316 µM (active)	> 1.58 µM (inactive)	1.58 µM (active)	> 0.794 µM (inactive)	> 2.51 µM (inactive)	> 1.26 µM (inactive)	1.26 µM (active)	Cc1n[nH]c2cnc(-c3cncc(OCC(N)Cc4cccc(C(F)(F)F)c4)c3)cc12 (stereo unspecified)	Ki [6]: 0.0631 µM (active); Ki [11]: 0.251 µM (active); Ki [23]: > 1.58 µM (inactive)
																				CC(=O)NC1C(=O)N(CCN2CCOCC2)c2ccc(Cl)cc21 (stereo unspecified)	AC50 [24]: 26.8 µM (active)
> 3.16 µM (inactive)	> 5.01 µM (inactive)	> 10 µM (inactive)	> 10 µM (inactive)	> 5.01 µM (inactive)	> 5.01 µM (inactive)	5.01 µM (active)	> 3.98 µM (inactive)	1.26 µM (active)	> 7.94 µM (inactive)	> 3.98 µM (inactive)	> 10 µM (inactive)	0.794 µM (active)	2 µM (active)	> 1.58 µM (inactive)	0.631 µM (active)	0.398 µM (active)	> 2.51 µM (inactive)	> 1.26 µM (inactive)	0.1 µM (active)	Cc1c(C=O)c(O)n2c(nc3ccccc32)c1C#N	Ki [25]: > 7.94 µM (inactive); Ki [23]: 0.794 µM (active)
